This note sets out measurements from patent US11584712B2, “Alkylamine-substituted perthiocarbamates as dual precursors to hydropersulfide and carbonyl sulfide” (The Johns Hopkins University, priority 2020, dated 2023).

Data set [1] in a line: COS release using membrane inlet mass spectrometry (MIMS). It is filed as physicochemical. As to conditions: precursor 50 μM, NAC 0.25 mM (5 equiv.), pH 7.4 phosphate buffer saline with DTPA, 37° C. The method, then: (§1) COS was analyzed using a Hiden HPR-40 MIMS system with a sample cell and membrane probe that have been optimized to detect gases dissolved in aqueous solution as described previously. Cline et al., 2011. A stock solution of N-acetyl-cysteine (25 mM) was prepared in DI water. RSSH precursor stock solutions (5 mM) were prepared in DMSO. These solutions were degassed by purging with nitrogen for 10 min before COS release analysis. Typically, 20 mL phosphate buffer solution (10 mM) was added to the sample cell, degassed and purged with a continuous flow of argon for 15 min. N-acetyl cysteine (200 μL, 25 mM) and RSSH precursor (200 μL, 5 mM) were then injected using a gas tight syringe and ion current at m/z 60 (COS^+) were collected for 2 h (source pressure was approximately 1×10^−7 to 5×10^−7 Torr).
as §1, with “(COS*)” for “(COS^+)”

A short description of data set [2]: Stability and intermolecular reactivity of control compound 8 by UPLC-MS. It is filed as physicochemical. To be noted: 100 μM, 37° C. The method, then:
FIG. 11 is an UPLC-MS chromatogram of 8 (100 μM) incubated in pH 7.4 ammonium bicarbonate buffer at 37° C. Aliquots taken at various times were quenched with 1% formic acid and analyzed by UPLC-MS.
Aliquots (200 μL) were taken at specified time points, quenched with 1% formic acid (200 μL) and analyzed using UPLC-MS.
FIG. 13 is UPLC-MS chromatograms of control compound 8 (100 μM) reaction with NAC (500 μM) in pH 7.4 ammonium bicarbonate (50 mM) with the metal chelator DTPA (100 μM) at 37° C. Aliquots (200 μL) were taken at specified time points, quenched with 1% formic acid (200 μL) and analyzed using UPLC-MS;

The subject of the next data set is H9c2 cells. Description: H9c2 cell protection from H2O2-mediated oxidative stress, SYTOX Green nucleic acid stain. It is filed as cell-based, rat. To be noted: 2 h pretreatment (150 μM for 8), then H2O2 200 μM. As for the experimental part:
Cells were seeded at a density of 1×10^4 cells/well. After 24 h, precursor 7b or byproduct 2b is added in 20 μL volumes using DMSO: H2O (<0.01% DMSO). Cells were incubated for 2 h before media was removed and the cells gently washed with PBS (pH 7.4). Then, 180 μL of fresh media and 20 μL H2O2 diluted in H2O were added before cells were incubated for an additional 1 h. After removing this media, 100 μL of media containing 3 μM SYTOX™ Green nucleic acid stain was added, and the cells incubated for 2 h before fluorescence readings were obtained at 485Ex/538Em (Step 1). Finally, an additional 100 μL of media containing 3 μM SYTOX™ and 0.2% Triton X-100 was added in order to permeabilize all cells and incubated for 1 h before fluorescence values measured (Step 2). The relative % cells surviving was calculated as a 100% minus the ratio of the fluorescence value of Step 1 over Step 2 (% cells surviving=100%−(FL538 (Step 1)/FL538 (Step 2)). Fluorescence values for vehicle-treated, non-H2O2-exposed wells were treated as background cell death and this value is added to the % cell survival for each subsequent group.
See Hofgaard et al., 2006, for general procedures. […] After removing this media, 100 μL of media containing 3 μM SYTOX® Green nucleic acid stain was added, and the cells incubated for 2 h before fluorescence readings were obtained at 485Ex/538Em (Step 1). […]

Entries after “also recorded” stand apart in the source; their conditions may differ.

For the molecule `CCCN(C)C(=O)SSC(C)(C)C(NC(C)=O)C(=O)OC` (centres unmarked) [control compound 8, Methyl 2-acetamido-3-methyl-3-((methyl(propyl)carbamoyl)disulfaneyl)butanoate], the “COS release (m/z=60 signal)” value in data set [1] is recorded as “Relatively slow COS release”. Moreover, the “RSSH release via intermolecular reaction with thiol” value in data set [2] (NAC 500 μM, pH 7.4 ammonium bicarbonate buffer) is “does not release RSSH via intermolecular reactions”. In addition, the “reaction with n-butylamine (RSSH release via intermolecular reaction)” value in data set [2] (n-BuNH2 500 μM (5 equiv.), pH 7.4 ammonium bicarbonate:acetonitrile (9:1), at least over 2 h) is listed as “no reactivity; also recorded: lack of reaction”. The “stability / RSSH release at pH 7.4” value in data set [2] (pH 7.4 ammonium bicarbonate buffer) is “No RSSH release; also recorded: stable under these conditions and does not produce RSSH”. In addition, the “protection against H2O2-mediated toxicity (SYTOX)” value in the data set on H9c2 cells is “protective effects against H2O2-mediated toxicity, but to a lesser extent compared with 7b”.
